# According to patent US6737383B1, “Herbicidal oxadiazolidines” (priority 1999, dated 2004):
# Columns and labels:
# [1] = test system: cocklebur; test: Test B pre/postemergence cocklebur; type: in vivo, Xanthium strumarium
# In short: (§1)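 Test chemicals in a non-phytotoxic solvent mixture with surfactant were sprayed preemergence onto planted seeds and postemergence onto plants 2 to 18 cm tall (1- to 4-leaf stage). After twelve to sixteen days in a greenhouse, injury was visually rated against untreated controls from 0 (no effect) to 10 (complete control).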
# [2] = test system: wild oat; test: Test B pre/postemergence wild oat; type: in vivo, Avena fatua; conditions: Preemergence
# In short: as §1
# [3] = test system: velvetleaf; test: Test B pre/postemergence velvetleaf; type: in vivo, Abutilon theophrasti; conditions: Preemergence
# In short: as §1
# [4] = test system: surinam grass; test: Test B pre/postemergence surinam grass; type: in vivo, Brachiaria decumbens
# In short: as §1
# [5] = test system: wheat; test: Test B pre/postemergence wheat; type: in vivo, Triticum aestivum; conditions: Preemergence
# In short: as §1
# [6] = test system: soybean; test: Test B pre/postemergence soybean; type: in vivo, Glycine max; conditions: Preemergence
# In short: as §1
# [7] = test system: morningglory; test: Test B pre/postemergence morningglory; type: in vivo, Ipomoea hederacea
# In short: as §1
# [8] = test system: crabgrass; test: Test B pre/postemergence crabgrass; type: in vivo, Digitaria sanguinalis
# In short: as §1
# [9] = test system: rice; test: Test B flood test rice; type: in vivo, Oryza sativa
# In short: (§2)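 Flood test on plants grown to the 2-leaf stage; treated plants kept in greenhouse twelve to sixteen days, then visually rated against controls on a 0 (no effect) to 10 (complete control) scale.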
# [10] = test system: bedstraw; test: Test B pre/postemergence bedstraw; type: in vivo, Galium aparine
# In short: as §1
# [11] = test system: purple nutsedge; test: Test B pre/postemergence purple nutsedge; type: in vivo, Cyperus rotundus
# In short: as §1
# [12] = test system: corn; test: Test B pre/postemergence corn; type: in vivo, Zea mays
# In short: as §1
# [13] = test system: duck salad; test: Test B flood test duck salad; type: in vivo, Heteranthera limosa
# In short: as §2
# [14] = test system: blackgrass; test: Test B pre/postemergence blackgrass; type: in vivo, Alopecurus myosuroides
# In short: as §1
# [15] = test system: pigweed; test: Test B pre/postemergence pigweed; type: in vivo, Amaranthus retroflexus
# In short: as §1
# [16] = test system: giant foxtail; test: Test B pre/postemergence giant foxtail; type: in vivo, Setaria faberii
# In short: as §1
# [17] = test system: bamyardgrass; test: Test B flood test barnyardgrass; type: in vivo, Echinochloa crus-galli
# In short: as §2
# [18] = test system: smallflower flatsedge; test: Test B flood test smallflower flatsedge; type: in vivo, Cyperus difformis
# In short: as §2
# [19] = test system: rape; test: Test B pre/postemergence rape; type: in vivo, Brassica napus
# In short: as §1
# [20] = test system: sugar beet; test: Test B pre/postemergence sugar beet; type: in vivo, Beta vulgaris; conditions: Preemergence
# In short: as §1
# [21] = Preemergence, Rate 31 g/ha, visual rating, scale 0 to 10 (0 no effect, 10 complete control)
# [22] = Preemergence, Rate 62 g/ha, scale of 0 to 10 where 0 is no effect and 10 is complete control
# [23] = Preemergence, Rate 250 g/ha, scale of 0 to 10 where 0 is no effect and 10 is complete control
# [24] = Rate 31 g/ha, Postemergence, scale 0 to 10
# [25] = Rate 62 g/ha, Postemergence, scale of 0 to 10 where 0 is no effect and 10 is complete control
# [26] = Rate 125 g/ha, Postemergence, scale 0 to 10
# [27] = Rate 125 g/ha, Preemergence, scale of 0 to 10 where 0 is no effect and 10 is complete control
# [28] = Rate 31 g/ha, visual rating, scale 0 to 10 (0 no effect, 10 complete control)
# [29] = Rate 62 g/ha, scale of 0 to 10 where 0 is no effect and 10 is complete control
# [30] = Rate 250 g/ha, scale of 0 to 10 where 0 is no effect and 10 is complete control
# [31] = Rate 125 g/ha, scale of 0 to 10 where 0 is no effect and 10 is complete control
# [32] = Rate 62 g/ha, headed Pre-emergence (flood test species), scale 0 to 10 (0 no effect, 10 complete control)
# [33] = Rate 125 g/ha, Pre-emergence, flood test species, scale 0 to 10 where 0 is no effect and 10 is complete control
# [34] = Rate 250 g/ha, Pre-emergence, flood-test species, scale 0 to 10, 0 is no effect, 10 is complete control
# [35] = Rate 500 g/ha, Pre-emergence, flood test species, scale 0 to 10 (0 no effect, 10 complete control)
structure (smiles),measurement,setting,value
C=C(Cn1c(=O)on(C(=O)N(c2ccc(F)cc2)C(C)C)c1=O)C[Si](C)(C)C [Compound 256],Cocklebur plant response rating,[1]; [21],0
same,Cocklebur plant response rating,[1]; [22],0
same,Cocklebur plant response rating,[1]; [23],0
same,Cocklebur plant response rating,[1]; [24],0
same,Cocklebur plant response rating,[1]; [25],0
same,Cocklebur plant response rating,[1]; [26],0
same,Cocklebur plant response rating,[1]; [27],0
same,"Plant response rating (0 to 10; 0 is no effect, 10 is complete control), Cocklebur","[1]; Rate 250 g/ha, Postemergence",0
same,Wild oats plant response rating,[2]; [28],0
same,Wild oats plant response rating,[2]; [29],0
same,Wild oats plant response rating,[2]; [30],0
same,Wild oats plant response rating,[2]; [31],0
same,Velvetleaf plant response rating,[3]; [28],0
same,Velvetleaf plant response rating,[3]; [29],0
same,Velvetleaf plant response rating,[3]; [30],0
same,Velvetleaf plant response rating,[3]; [31],0
same,B. signalgrass plant response rating,[4]; [21],0
same,B. signalgrass plant response rating,[4]; [22],0
same,B. signalgrass plant response rating,[4]; [23],0
same,B. signalgrass plant response rating,[4]; [24],0
same,B. signalgrass plant response rating,[4]; [25],0
same,B. signalgrass plant response rating,"[4]; Rate 125 g/ha, Postemergence, scale 0 (no effect) to 10 (complete control)",0
same,B. signalgrass plant response rating,[4]; [27],0
same,"Plant response rating (0 to 10; 0 is no effect, 10 is complete control), B. signalgrass","[4]; Rate 250 g/ha, Postemergence",0
same,Wheat plant response rating,[5]; [28],0
same,Wheat plant response rating,[5]; [29],0
same,Wheat plant response rating,[5]; [30],0
same,Wheat plant response rating,[5]; [31],0
same,Soybean plant response rating,[6]; [28],0
same,Soybean plant response rating,[6]; [29],0
same,Soybean plant response rating,[6]; [30],0
same,Soybean plant response rating,[6]; [31],0
same,Morningglory plant response rating,[7]; [21],0
same,Morningglory plant response rating,[7]; [22],0
same,Morningglory plant response rating,[7]; [23],0
same,Morningglory plant response rating,[7]; [24],6
same,Morningglory plant response rating,[7]; [27],0
same,Crabgrass plant response rating,[8]; [21],0
same,Crabgrass plant response rating,[8]; [22],0
same,Crabgrass plant response rating,[8]; [23],2
same,Crabgrass plant response rating,[8]; [24],0
same,Crabgrass plant response rating,[8]; [27],2
same,"Plant response rating (0 to 10; 0 is no effect, 10 is complete control), Crabgrass","[8]; Rate 250 g/ha, Postemergence",1
same,Rice plant response rating,[9]; [32],0
same,Rice plant response rating,[9]; [33],0
same,Rice plant response rating,[9]; [34],0
same,Rice plant response rating,[9]; [35],0
same,Bedstraw plant response rating,[10]; [21],0
same,Bedstraw plant response rating,[10]; [22],0
same,Bedstraw plant response rating,[10]; [23],0
same,Bedstraw plant response rating,[10]; [24],0
same,Bedstraw plant response rating,[10]; [25],0
same,Bedstraw plant response rating,[10]; [26],0
same,Bedstraw plant response rating,[10]; [27],0
same,"Plant response rating (0 to 10; 0 is no effect, 10 is complete control), Bedstraw","[10]; Rate 250 g/ha, Postemergence",0
same,Nutsedge plant response rating,[11]; [23],0
same,Nutsedge plant response rating,[11]; [24],0
same,"Plant response rating (0 to 10; 0 is no effect, 10 is complete control), Nutsedge","[11]; Rate 250 g/ha, Postemergence",0
same,Corn plant response rating,[12]; [21],0
same,Corn plant response rating,[12]; [22],0
same,Corn plant response rating,[12]; [23],0
same,Corn plant response rating,[12]; [24],0
same,Corn plant response rating,[12]; [25],0
same,Corn plant response rating,[12]; [26],0
same,Corn plant response rating,[12]; [27],0
same,"Plant response rating (0 to 10; 0 is no effect, 10 is complete control), Corn","[12]; Rate 250 g/ha, Postemergence",0
same,Ducksalad plant response rating,[13]; [32],0
same,Ducksalad plant response rating,[13]; [33],0
same,Ducksalad plant response rating,[13]; [34],0
same,Ducksalad plant response rating,[13]; [35],0
same,Blackgrass plant response rating,[14]; [21],0
same,Blackgrass plant response rating,[14]; [22],0
same,Blackgrass plant response rating,[14]; [23],0
same,Blackgrass plant response rating,[14]; [24],0
same,Blackgrass plant response rating,[14]; [25],0
same,Blackgrass plant response rating,[14]; [26],0
same,Blackgrass plant response rating,[14]; [27],0
same,"Plant response rating (0 to 10; 0 is no effect, 10 is complete control), Blackgrass","[14]; Rate 250 g/ha, Postemergence",0
same,Redroot pigweed plant response rating,[15]; [21],0
same,Redroot pigweed plant response rating,[15]; [22],0
same,Redroot pigweed plant response rating,[15]; [23],0
same,Redroot pigweed plant response rating,[15]; [24],0
same,Redroot pigweed plant response rating,[15]; [27],0
same,"Plant response rating (0 to 10; 0 is no effect, 10 is complete control), Redroot pigweed","[15]; Rate 250 g/ha, Postemergence",4
same,Giant foxtail plant response rating,[16]; [21],0
same,Giant foxtail plant response rating,[16]; [22],0
same,Giant foxtail plant response rating,[16]; [23],9
same,Giant foxtail plant response rating,[16]; [24],0
same,Giant foxtail plant response rating,[16]; [27],5
same,"Plant response rating (0 to 10; 0 is no effect, 10 is complete control), Giant foxtail","[16]; Rate 250 g/ha, Postemergence",0
same,Barnyardgrass plant response rating,[17]; [32],0
same,Barnyardgrass plant response rating,[17]; [33],0
same,Barnyardgrass plant response rating,[17]; [34],0
same,Barnyardgrass plant response rating,[17]; [35],0
same,S. Flatsedge plant response rating,[18]; [32],0
same,S. Flatsedge plant response rating,[18]; [33],0
same,S. Flatsedge plant response rating,[18]; [34],0
same,S. Flatsedge plant response rating,[18]; [35],0
same,Rape plant response rating,[19]; [21],0
same,Rape plant response rating,[19]; [22],0
same,Rape plant response rating,[19]; [23],0
same,Rape plant response rating,[19]; [24],0
same,Rape plant response rating,[19]; [27],0
same,"Plant response rating (0 to 10; 0 is no effect, 10 is complete control), Rape","[19]; Rate 250 g/ha, Postemergence",2
same,Sugarbeets plant response rating,[20]; [28],0
same,Sugarbeets plant response rating,[20]; [29],0
same,Sugarbeets plant response rating,[20]; [30],0
same,Sugarbeets plant response rating,[20]; [31],0
